Data published in PubChem BioAssay (NCI).
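Briefly, cells in 96-well plates were exposed to five compound concentrations for 48 h, and endpoints were estimated by linear interpolation. TGI: concentration producing complete growth inhibition.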

Experiments:
Experiment in all cases: NCI-60 cell line screen, 48 h
786-0 renal = system: 786-0 renal
HS 578T breast = system: HS 578T breast
IGROV1 ovarian = system: IGROV1 ovarian
LOX IMVI melanoma = system: LOX IMVI melanoma
MCF7 breast = system: MCF7 breast
OVCAR-8 ovarian = system: OVCAR-8 ovarian
SF-295 CNS = system: SF-295 CNS
SK-MEL-28 melanoma = system: SK-MEL-28 melanoma
SNB-19 CNS = system: SNB-19 CNS
U251 CNS = system: U251 CNS

COC(=O)C1OC(O[C@H]2CC[C@]3(C)[C@H]4CC=C5[C@@H]6CC(C)(C)CC[C@]6(C(=O)OC6OCC(O)C(O)C6OC6OC(C)C(OC7OCC(OC8OCC(O)C(O)C8O)C(O)C7O)C(O)C6O)[C@H](O)C[C@@]5(C)[C@]4(C)CC[C@H]3C2(C)C)C(O)C(O)C1O (stereo not given in full)
TGI (786-0 renal): 20.2 µM
TGI (HS 578T breast): 13 µM
TGI (IGROV1 ovarian): 9.34 µM
TGI (LOX IMVI melanoma): 22 µM
TGI (MCF7 breast): 6.63 µM
TGI (OVCAR-8 ovarian): 13.2 µM
TGI (SF-295 CNS): 8.66 µM
TGI (SK-MEL-28 melanoma): 4.24 µM
TGI (SNB-19 CNS): 8.09 µM
TGI (U251 CNS): 18.2 µM

O/C(=C\c1nc2ccccc2nc1NC12CC3CC(CC(C3)C1)C2)c1ccc(Br)cc1
TGI (786-0 renal): > 10 µM
TGI (HS 578T breast): > 10 µM
TGI (IGROV1 ovarian): > 10 µM
TGI (LOX IMVI melanoma): > 10 µM
TGI (MCF7 breast): > 10 µM
TGI (OVCAR-8 ovarian): > 10 µM
TGI (SF-295 CNS): > 10 µM
TGI (SK-MEL-28 melanoma): > 10 µM
TGI (SNB-19 CNS): > 10 µM
TGI (U251 CNS): > 10 µM

c1ccc(-c2cnc(-c3ccc(-c4ncc(-c5ccccc5)o4)cc3)o2)cc1
TGI (786-0 renal): > 100 µM
TGI (HS 578T breast): > 100 µM
TGI (IGROV1 ovarian): > 100 µM
TGI (LOX IMVI melanoma): > 100 µM
TGI (MCF7 breast): > 100 µM
TGI (OVCAR-8 ovarian): > 100 µM
TGI (SF-295 CNS): > 100 µM
TGI (SK-MEL-28 melanoma): > 100 µM
TGI (SNB-19 CNS): > 100 µM
TGI (U251 CNS): > 100 µM

CC1=CC(=O)C(C(O)(C(F)(F)F)C(F)(F)F)C(C)(C)C1 (stereo not given)
TGI (786-0 renal): > 10 µM
TGI (HS 578T breast): > 10 µM
TGI (IGROV1 ovarian): > 10 µM
TGI (LOX IMVI melanoma): > 10 µM
TGI (MCF7 breast): > 10 µM
TGI (OVCAR-8 ovarian): > 10 µM
TGI (SF-295 CNS): > 10 µM
TGI (SK-MEL-28 melanoma): > 10 µM
TGI (SNB-19 CNS): > 10 µM
TGI (U251 CNS): > 10 µM

COc1ccc(N=Nc2c3c(c(O)c4ccccc24)CCC(C)(C)O3)cc1
TGI (786-0 renal): 73.8 µM
TGI (HS 578T breast): 66.7 µM
TGI (IGROV1 ovarian): 35.5 µM
TGI (LOX IMVI melanoma): 29.9 µM
TGI (MCF7 breast): 29.5 µM
TGI (OVCAR-8 ovarian): > 100 µM
TGI (SF-295 CNS): 30.3 µM
TGI (SK-MEL-28 melanoma): 43.1 µM
TGI (SNB-19 CNS): 50.4 µM
TGI (U251 CNS): 37.9 µM

CCOC(=O)C1CN(C2CC2)CCC1=O (stereo not given)
TGI (786-0 renal): > 100 µM
TGI (HS 578T breast): > 100 µM
TGI (IGROV1 ovarian): > 100 µM
TGI (LOX IMVI melanoma): > 100 µM
TGI (MCF7 breast): > 100 µM
TGI (OVCAR-8 ovarian): > 100 µM
TGI (SF-295 CNS): > 100 µM
TGI (SK-MEL-28 melanoma): > 100 µM
TGI (SNB-19 CNS): > 100 µM
TGI (U251 CNS): > 100 µM

CC/C(Cl)=N\OC(=O)Nc1ccc(F)c([N+](=O)[O-])c1
TGI (786-0 renal): 26.8 µM
TGI (HS 578T breast): 31.7 µM
TGI (IGROV1 ovarian): 33.8 µM
TGI (LOX IMVI melanoma): > 48.9 µM
TGI (MCF7 breast): > 37.8 µM
TGI (OVCAR-8 ovarian): 32.8 µM
TGI (SF-295 CNS): 41.6 µM
TGI (SK-MEL-28 melanoma): 33.9 µM
TGI (SNB-19 CNS): 33.7 µM
TGI (U251 CNS): 46.3 µM

Cc1ccc(S(=O)(=O)NC(=O)NNc2ccc(F)cc2)cc1
TGI (786-0 renal): > 100 µM
TGI (HS 578T breast): > 100 µM
TGI (IGROV1 ovarian): > 100 µM
TGI (LOX IMVI melanoma): > 100 µM
TGI (MCF7 breast): > 100 µM
TGI (OVCAR-8 ovarian): > 100 µM
TGI (SF-295 CNS): > 100 µM
TGI (SK-MEL-28 melanoma): > 100 µM
TGI (SNB-19 CNS): > 100 µM
TGI (U251 CNS): > 100 µM

COc1cc(CNc2nc3cc(C(F)(F)F)ccc3nc2-c2ccccc2)cc(OC)c1OC
TGI (786-0 renal): > 100 µM
TGI (HS 578T breast): > 100 µM
TGI (IGROV1 ovarian): > 100 µM
TGI (LOX IMVI melanoma): > 100 µM
TGI (MCF7 breast): 22.4 µM
TGI (OVCAR-8 ovarian): > 100 µM
TGI (SF-295 CNS): > 100 µM
TGI (SK-MEL-28 melanoma): > 100 µM
TGI (SNB-19 CNS): > 100 µM
TGI (U251 CNS): > 100 µM

O=C(CNCc1ccccc1)Oc1c(Cl)c(Cl)c(Cl)c(Cl)c1Cl
TGI (786-0 renal): > 100 µM
TGI (HS 578T breast): 50.6 µM
TGI (IGROV1 ovarian): > 100 µM
TGI (LOX IMVI melanoma): 74.4 µM
TGI (MCF7 breast): > 100 µM
TGI (OVCAR-8 ovarian): 48.8 µM
TGI (SF-295 CNS): 92.9 µM
TGI (SK-MEL-28 melanoma): > 100 µM
TGI (SNB-19 CNS): > 100 µM
TGI (U251 CNS): 70.5 µM

Cc1cc2c(nn1)-c1ccccc1C2=O
TGI (786-0 renal): > 10 µM
TGI (HS 578T breast): > 10 µM
TGI (IGROV1 ovarian): > 10 µM
TGI (LOX IMVI melanoma): > 10 µM
TGI (MCF7 breast): > 10 µM
TGI (OVCAR-8 ovarian): > 10 µM
TGI (SF-295 CNS): > 10 µM
TGI (SK-MEL-28 melanoma): > 10 µM
TGI (SNB-19 CNS): > 10 µM
TGI (U251 CNS): > 10 µM

C[C@]1(S(=O)(=O)c2ccccc2)C[C@H]2N(Cc3ccccc3)[C@@H]1CCC21OCCO1
TGI (786-0 renal): > 100 µM
TGI (HS 578T breast): > 100 µM
TGI (IGROV1 ovarian): > 100 µM
TGI (LOX IMVI melanoma): > 100 µM
TGI (MCF7 breast): > 100 µM
TGI (OVCAR-8 ovarian): > 100 µM
TGI (SF-295 CNS): > 100 µM
TGI (SK-MEL-28 melanoma): > 100 µM
TGI (SNB-19 CNS): > 100 µM
TGI (U251 CNS): > 100 µM

O=C1CC(Sc2nc3ccc(I)cc3c(=O)n2Cc2ccccc2)C(=O)NN1 (stereo not given)
TGI (786-0 renal): 28.4 µM
TGI (HS 578T breast): 42.4 µM
TGI (IGROV1 ovarian): 25.2 µM
TGI (LOX IMVI melanoma): 11.2 µM
TGI (MCF7 breast): 28.2 µM
TGI (OVCAR-8 ovarian): 28.4 µM
TGI (SF-295 CNS): 36.9 µM
TGI (SK-MEL-28 melanoma): 31.7 µM
TGI (SNB-19 CNS): 39.1 µM
TGI (U251 CNS): 29.4 µM

CCc1nc2cc3cccnc3c(Cl)c2[nH]c1=O
TGI (786-0 renal): > 100 µM
TGI (HS 578T breast): > 100 µM
TGI (IGROV1 ovarian): > 100 µM
TGI (LOX IMVI melanoma): > 100 µM
TGI (MCF7 breast): > 100 µM
TGI (OVCAR-8 ovarian): > 100 µM
TGI (SF-295 CNS): > 100 µM
TGI (SK-MEL-28 melanoma): > 100 µM
TGI (SNB-19 CNS): > 100 µM
TGI (U251 CNS): > 100 µM

COc1ccc(N=C2C(=S)N(c3ccc(OC)cc3)/C(=N/S(=O)(=O)c3ccccc3)N2c2ccccc2)cc1
TGI (786-0 renal): 19.7 µM
TGI (HS 578T breast): > 66.1 µM
TGI (IGROV1 ovarian): 28.1 µM
TGI (LOX IMVI melanoma): 16.9 µM
TGI (MCF7 breast): 35.8 µM
TGI (OVCAR-8 ovarian): 5.47 µM
TGI (SF-295 CNS): > 49.5 µM
TGI (SK-MEL-28 melanoma): 29.7 µM
TGI (SNB-19 CNS): > 61 µM
TGI (U251 CNS): 28.8 µM

O=C(CCCN1CCC2(CC1)C(=NC1CCCCC1)NC(=O)N2c1ccccc1)c1ccc(F)cc1
TGI (786-0 renal): 45 µM
TGI (HS 578T breast): 88.4 µM
TGI (IGROV1 ovarian): 62.2 µM
TGI (LOX IMVI melanoma): 30 µM
TGI (MCF7 breast): 33.1 µM
TGI (OVCAR-8 ovarian): 68.4 µM
TGI (SF-295 CNS): 39.2 µM
TGI (SK-MEL-28 melanoma): 34.2 µM
TGI (SNB-19 CNS): > 100 µM
TGI (U251 CNS): 81.1 µM

O=C(CCc1cccc(O)c1)NCCCNC(=O)CCc1cccc(O)c1
TGI (786-0 renal): > 100 µM
TGI (HS 578T breast): > 100 µM
TGI (IGROV1 ovarian): > 100 µM
TGI (LOX IMVI melanoma): > 100 µM
TGI (MCF7 breast): > 100 µM
TGI (OVCAR-8 ovarian): > 100 µM
TGI (SF-295 CNS): > 100 µM
TGI (SK-MEL-28 melanoma): > 100 µM
TGI (SNB-19 CNS): > 100 µM
TGI (U251 CNS): > 100 µM

c1ccc(C2=Nn3c(CCCCCCCCc4nnc5n4N=C(c4ccccc4)CS5)nnc3SC2)cc1
TGI (786-0 renal): 33.2 µM
TGI (HS 578T breast): > 100 µM
TGI (IGROV1 ovarian): > 100 µM
TGI (LOX IMVI melanoma): > 100 µM
TGI (MCF7 breast): > 100 µM
TGI (OVCAR-8 ovarian): > 100 µM
TGI (SF-295 CNS): 55.3 µM
TGI (SK-MEL-28 melanoma): > 100 µM
TGI (SNB-19 CNS): 43.3 µM
TGI (U251 CNS): 36.8 µM
